Assays:
Assay in all cases: Kinase panel (Carna)
Format in all cases: biochemical
ROCK2 = target: T1, ROCK2 (Homo sapiens, UniProt O75116)
T1 construct: purchased Carna Biosciences

LTK = target: T2, LTK (Homo sapiens, UniProt P29376)
T2 construct: purchased Carna Biosciences
Excerpt: (§1) Detailed information on the assay conditions is available on the website of Carna Biosciences (http://www.carnabio.com).

LYNb = target: T3, LYNb (Homo sapiens, UniProt P07948)
T3 construct: purchased Carna Biosciences
Excerpt: as §1

RSK1 = target: T4, RSK1 (Homo sapiens, UniProt Q15418)
T4 construct: purchased Carna Biosciences

PYK2 = target: T5, PYK2 (Homo sapiens, UniProt Q14289)
T5 construct: purchased Carna Biosciences
Excerpt: as §1

FGFR3 = target: T6, FGFR3 (Homo sapiens, UniProt P22607)
T6 construct: purchased Carna Biosciences

TIE2 = target: T7, TIE2 (Homo sapiens, UniProt Q02763)
T7 construct: purchased Carna Biosciences
Excerpt: as §1

PKCβ2 = target: T8, PKCβ2 (Homo sapiens, UniProt P05771)
T8 construct: purchased Carna Biosciences
Excerpt: as §1

CDK9/CycT1 = target: T9, CDK9/CycT1 (Homo sapiens, UniProt P50750)
T9 construct: purchased Carna Biosciences
Excerpt: as §1

Erk1 = target: T10, Erk1 (Homo sapiens, UniProt P27361)
T10 construct: purchased Carna Biosciences
Excerpt: as §1

AurC = target: T11, AurC (Homo sapiens, UniProt Q9UQB9)
T11 construct: purchased Carna Biosciences
Excerpt: as §1

MGC42105 = target: T12, MGC42105 (Homo sapiens, UniProt Q8IY84)
T12 construct: purchased Carna Biosciences
Excerpt: as §1

PAK2 = target: T13, PAK2 (Homo sapiens, UniProt Q13177)
T13 construct: purchased Carna Biosciences
Excerpt: as §1

IKKα = target: T14, IKKα (Homo sapiens, UniProt O15111)
T14 construct: purchased Carna Biosciences
Excerpt: as §1

EPHA7 = target: T15, EPHA7 (Homo sapiens, UniProt Q15375)
T15 construct: purchased Carna Biosciences

PDGFRβ = target: T16, PDGFRβ (Homo sapiens, UniProt P09619)
T16 construct: purchased Carna Biosciences
Excerpt: as §1

WNK2 = target: T17, WNK2 (Homo sapiens, UniProt Q9Y3S1)
T17 construct: purchased Carna Biosciences
Excerpt: as §1

TXK = target: T18, TXK (Homo sapiens, UniProt P42681)
T18 construct: purchased Carna Biosciences
Excerpt: as §1

PLK3 = target: T19, PLK3 (Homo sapiens, UniProt Q9H4B4); conditions: 10 µM FINDY
T19 construct: purchased Carna Biosciences

PKACγ = target: T20, PKACγ (Homo sapiens, UniProt P22612)
T20 construct: purchased Carna Biosciences

PKR = target: T21, PKR (Homo sapiens, UniProt P19525)
T21 construct: purchased Carna Biosciences

PDHK2 = target: T22, PDHK2 (Homo sapiens, UniProt Q15119)
T22 construct: purchased Carna Biosciences
Excerpt: as §1

PKD2 = target: T23, PKD2 (Homo sapiens, UniProt Q9BZL6)
T23 construct: purchased Carna Biosciences
Excerpt: as §1

QIK = target: T24, QIK (Homo sapiens, UniProt Q9H0K1)
T24 construct: purchased Carna Biosciences

PGK = target: T25, PGK (Homo sapiens, UniProt Q13976)
T25 construct: purchased Carna Biosciences
Excerpt: as §1

DDR2 = target: T26, DDR2 (Homo sapiens, UniProt Q16832)
T26 construct: purchased Carna Biosciences

PDK1 = target: T27, PDK1 (Homo sapiens, UniProt O15530)
T27 construct: purchased Carna Biosciences
Excerpt: as §1

MLK2_Cascade = target: T28, MLK2_Cascade (Homo sapiens, UniProt Q02779)
T28 construct: purchased Carna Biosciences
Excerpt: as §1

MNK2 = target: T29, MNK2 (Homo sapiens, UniProt Q9HBH9)
T29 construct: purchased Carna Biosciences

CDC7/ASK = target: T30, CDC7/ASK (Homo sapiens, UniProt O00311)
T30 construct: purchased Carna Biosciences
Excerpt: as §1

TNIK = target: T31, TNIK (Homo sapiens, UniProt Q9UKE5)
T31 construct: purchased Carna Biosciences
Excerpt: as §1

FGFR4 = target: T32, FGFR4 (Homo sapiens, UniProt P22455)
T32 construct: purchased Carna Biosciences

MAPKAPK2 = target: T33, MAPKAPK2 (Homo sapiens, UniProt P49137)
T33 construct: purchased Carna Biosciences

TYK2 = target: T34, TYK2 (Homo sapiens, UniProt P29597)
T34 construct: purchased Carna Biosciences
Excerpt: as §1

CDK4/CycD3 = target: T35, CDK4/CycD3 (Homo sapiens, UniProt P11802)
T35 construct: purchased Carna Biosciences
Excerpt: as §1

CaMK1α = target: T36, CaMK1α (Homo sapiens, UniProt Q14012)
T36 construct: purchased Carna Biosciences
Excerpt: as §1

AMPKα1/β1/γ1 = target: T37, AMPKα1/β1/γ1 (Homo sapiens, UniProt Q13131)
T37 construct: purchased Carna Biosciences
Excerpt: as §1

AKT2 = target: T38, AKT2 (Homo sapiens, UniProt P31751)
T38 construct: purchased Carna Biosciences
Excerpt: as §1

PKD1 = target: T39, PKD1 (Homo sapiens, UniProt Q15139)
T39 construct: purchased Carna Biosciences
Excerpt: as §1

IKKβ = target: T40, IKKβ (Homo sapiens, UniProt O14920)
T40 construct: purchased Carna Biosciences
Excerpt: as §1

SRM = target: T41, SRM (Homo sapiens, UniProt Q9H3Y6)
T41 construct: purchased Carna Biosciences
Excerpt: as §1

BRAF_Cascade = target: T42, BRAF_Cascade (Homo sapiens, UniProt P15056)
T42 construct: purchased Carna Biosciences
Excerpt: as §1

SRPK1 = target: T43, SRPK1 (Homo sapiens, UniProt Q96SB4)
T43 construct: purchased Carna Biosciences
Excerpt: as §1

LOK = target: T44, LOK (Homo sapiens, UniProt O94804)
T44 construct: purchased Carna Biosciences
T44 sequence (O94804 whole entry): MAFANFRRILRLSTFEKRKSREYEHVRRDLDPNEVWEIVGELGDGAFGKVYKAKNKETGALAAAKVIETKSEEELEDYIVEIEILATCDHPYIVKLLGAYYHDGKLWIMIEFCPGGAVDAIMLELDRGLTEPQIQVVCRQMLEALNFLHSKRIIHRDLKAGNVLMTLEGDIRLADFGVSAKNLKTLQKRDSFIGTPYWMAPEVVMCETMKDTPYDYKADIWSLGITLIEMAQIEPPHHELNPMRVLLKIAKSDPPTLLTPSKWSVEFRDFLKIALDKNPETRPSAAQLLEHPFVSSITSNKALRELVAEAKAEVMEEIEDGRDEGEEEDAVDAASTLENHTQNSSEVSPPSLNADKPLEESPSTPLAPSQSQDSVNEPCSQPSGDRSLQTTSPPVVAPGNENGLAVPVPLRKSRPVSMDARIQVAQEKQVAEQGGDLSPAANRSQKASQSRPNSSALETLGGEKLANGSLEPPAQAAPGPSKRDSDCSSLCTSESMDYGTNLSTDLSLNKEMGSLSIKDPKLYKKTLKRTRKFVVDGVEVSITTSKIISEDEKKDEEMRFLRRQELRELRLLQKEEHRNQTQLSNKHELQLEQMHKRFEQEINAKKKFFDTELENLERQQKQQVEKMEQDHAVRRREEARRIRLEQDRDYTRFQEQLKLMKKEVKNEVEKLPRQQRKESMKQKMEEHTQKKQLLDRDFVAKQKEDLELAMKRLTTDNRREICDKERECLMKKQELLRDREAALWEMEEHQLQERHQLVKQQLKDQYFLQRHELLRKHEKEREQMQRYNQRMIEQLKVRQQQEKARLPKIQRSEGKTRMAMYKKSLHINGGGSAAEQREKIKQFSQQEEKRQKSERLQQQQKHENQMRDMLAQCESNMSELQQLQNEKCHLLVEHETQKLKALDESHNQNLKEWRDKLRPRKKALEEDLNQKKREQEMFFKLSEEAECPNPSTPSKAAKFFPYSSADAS

T25 sequence (Q13976 whole entry): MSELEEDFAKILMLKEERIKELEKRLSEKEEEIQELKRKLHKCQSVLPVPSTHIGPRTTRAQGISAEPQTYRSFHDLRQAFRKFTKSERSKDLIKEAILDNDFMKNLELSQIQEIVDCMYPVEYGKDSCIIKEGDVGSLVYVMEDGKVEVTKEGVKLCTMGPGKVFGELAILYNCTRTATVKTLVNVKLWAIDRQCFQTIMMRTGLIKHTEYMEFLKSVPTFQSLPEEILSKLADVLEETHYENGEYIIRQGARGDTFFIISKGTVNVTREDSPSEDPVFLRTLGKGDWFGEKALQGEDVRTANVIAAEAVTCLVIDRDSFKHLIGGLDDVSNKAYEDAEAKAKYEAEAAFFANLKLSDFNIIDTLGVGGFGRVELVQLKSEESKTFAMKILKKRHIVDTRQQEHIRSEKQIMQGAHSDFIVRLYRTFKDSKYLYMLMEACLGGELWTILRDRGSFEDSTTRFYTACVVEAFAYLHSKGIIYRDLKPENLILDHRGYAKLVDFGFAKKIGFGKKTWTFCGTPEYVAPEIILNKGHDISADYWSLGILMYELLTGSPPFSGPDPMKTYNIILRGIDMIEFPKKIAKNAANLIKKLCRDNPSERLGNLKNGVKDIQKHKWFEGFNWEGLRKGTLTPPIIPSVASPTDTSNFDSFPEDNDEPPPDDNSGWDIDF
T35 sequence (P11802 whole entry): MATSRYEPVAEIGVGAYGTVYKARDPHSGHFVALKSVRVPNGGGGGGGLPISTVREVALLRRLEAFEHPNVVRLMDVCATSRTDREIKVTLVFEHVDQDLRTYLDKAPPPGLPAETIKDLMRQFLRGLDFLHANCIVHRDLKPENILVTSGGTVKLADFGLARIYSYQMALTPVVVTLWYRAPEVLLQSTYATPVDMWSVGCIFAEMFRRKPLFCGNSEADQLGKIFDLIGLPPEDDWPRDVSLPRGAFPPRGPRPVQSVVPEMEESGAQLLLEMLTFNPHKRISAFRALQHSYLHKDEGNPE
T35 sequence (P30281 whole entry partner): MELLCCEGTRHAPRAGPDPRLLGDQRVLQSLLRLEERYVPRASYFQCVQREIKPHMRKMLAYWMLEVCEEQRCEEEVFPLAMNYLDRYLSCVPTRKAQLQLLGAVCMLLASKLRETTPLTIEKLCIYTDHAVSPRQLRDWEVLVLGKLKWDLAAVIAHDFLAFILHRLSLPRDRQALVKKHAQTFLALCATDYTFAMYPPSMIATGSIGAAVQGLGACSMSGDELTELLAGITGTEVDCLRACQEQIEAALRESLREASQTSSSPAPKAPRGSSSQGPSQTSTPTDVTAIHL
T42 sequence (P15056 whole entry): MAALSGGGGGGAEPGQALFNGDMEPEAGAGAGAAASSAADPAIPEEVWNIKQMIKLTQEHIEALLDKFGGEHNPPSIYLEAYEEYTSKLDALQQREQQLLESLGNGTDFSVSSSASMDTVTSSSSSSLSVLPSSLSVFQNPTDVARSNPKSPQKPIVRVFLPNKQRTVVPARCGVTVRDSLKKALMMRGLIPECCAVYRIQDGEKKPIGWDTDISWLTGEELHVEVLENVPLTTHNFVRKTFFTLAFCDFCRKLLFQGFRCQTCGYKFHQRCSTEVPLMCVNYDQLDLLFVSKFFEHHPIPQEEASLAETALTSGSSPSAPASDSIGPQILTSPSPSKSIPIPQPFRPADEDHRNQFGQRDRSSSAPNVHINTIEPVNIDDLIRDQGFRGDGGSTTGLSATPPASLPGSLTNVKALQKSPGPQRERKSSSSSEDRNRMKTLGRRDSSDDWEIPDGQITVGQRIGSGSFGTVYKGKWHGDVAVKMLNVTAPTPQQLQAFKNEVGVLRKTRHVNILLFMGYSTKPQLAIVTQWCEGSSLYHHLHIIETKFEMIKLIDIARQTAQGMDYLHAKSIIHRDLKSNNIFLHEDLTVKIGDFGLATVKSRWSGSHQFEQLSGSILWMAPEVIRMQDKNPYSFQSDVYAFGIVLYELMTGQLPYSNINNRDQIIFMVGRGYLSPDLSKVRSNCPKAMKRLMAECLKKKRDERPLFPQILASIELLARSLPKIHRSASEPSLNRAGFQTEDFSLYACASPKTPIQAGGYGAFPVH
T31 sequence (Q9UKE5 whole entry): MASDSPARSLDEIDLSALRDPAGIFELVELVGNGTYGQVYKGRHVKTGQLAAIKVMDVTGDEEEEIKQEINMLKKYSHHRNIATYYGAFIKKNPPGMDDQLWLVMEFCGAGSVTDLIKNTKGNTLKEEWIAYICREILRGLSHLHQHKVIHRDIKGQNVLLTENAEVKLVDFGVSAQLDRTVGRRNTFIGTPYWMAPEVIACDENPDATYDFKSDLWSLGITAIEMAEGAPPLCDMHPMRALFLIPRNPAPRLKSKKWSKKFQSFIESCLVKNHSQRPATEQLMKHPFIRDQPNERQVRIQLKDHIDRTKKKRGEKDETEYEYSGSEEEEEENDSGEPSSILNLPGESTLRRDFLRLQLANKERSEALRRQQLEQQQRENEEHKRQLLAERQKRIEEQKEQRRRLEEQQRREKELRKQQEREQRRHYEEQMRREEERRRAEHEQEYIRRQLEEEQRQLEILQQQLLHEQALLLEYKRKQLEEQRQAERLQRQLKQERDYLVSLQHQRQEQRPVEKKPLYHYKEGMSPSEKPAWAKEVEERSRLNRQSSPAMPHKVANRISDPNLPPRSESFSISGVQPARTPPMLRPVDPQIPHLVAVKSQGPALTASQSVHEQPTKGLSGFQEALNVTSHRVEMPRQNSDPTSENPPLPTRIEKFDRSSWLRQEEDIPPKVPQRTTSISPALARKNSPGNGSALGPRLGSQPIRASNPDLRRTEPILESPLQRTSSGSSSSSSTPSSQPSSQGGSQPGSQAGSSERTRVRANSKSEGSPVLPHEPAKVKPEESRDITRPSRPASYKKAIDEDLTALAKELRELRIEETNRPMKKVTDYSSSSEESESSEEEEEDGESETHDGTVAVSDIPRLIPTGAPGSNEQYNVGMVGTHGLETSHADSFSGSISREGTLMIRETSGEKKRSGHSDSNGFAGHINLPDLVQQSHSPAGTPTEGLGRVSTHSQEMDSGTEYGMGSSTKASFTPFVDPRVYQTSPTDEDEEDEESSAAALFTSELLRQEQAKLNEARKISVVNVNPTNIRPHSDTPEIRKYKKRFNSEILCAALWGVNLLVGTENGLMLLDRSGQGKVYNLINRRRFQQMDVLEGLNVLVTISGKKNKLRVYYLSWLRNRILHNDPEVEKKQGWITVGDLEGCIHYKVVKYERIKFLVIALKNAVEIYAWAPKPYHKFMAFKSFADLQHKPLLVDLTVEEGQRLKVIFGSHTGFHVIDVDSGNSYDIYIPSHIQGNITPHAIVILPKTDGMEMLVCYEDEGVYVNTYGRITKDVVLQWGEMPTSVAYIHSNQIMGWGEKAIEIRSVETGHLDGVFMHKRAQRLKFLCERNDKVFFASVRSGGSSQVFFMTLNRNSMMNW
T20 sequence (P22612 whole entry): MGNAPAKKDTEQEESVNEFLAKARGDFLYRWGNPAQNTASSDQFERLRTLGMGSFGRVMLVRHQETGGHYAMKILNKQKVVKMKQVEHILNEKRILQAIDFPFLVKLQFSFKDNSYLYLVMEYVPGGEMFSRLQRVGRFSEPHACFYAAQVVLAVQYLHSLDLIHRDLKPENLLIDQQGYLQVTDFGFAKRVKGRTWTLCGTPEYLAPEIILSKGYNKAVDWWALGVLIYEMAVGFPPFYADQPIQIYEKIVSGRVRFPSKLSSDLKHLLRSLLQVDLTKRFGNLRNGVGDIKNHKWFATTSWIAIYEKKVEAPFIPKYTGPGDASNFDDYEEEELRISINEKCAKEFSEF
T11 sequence (Q9UQB9 whole entry): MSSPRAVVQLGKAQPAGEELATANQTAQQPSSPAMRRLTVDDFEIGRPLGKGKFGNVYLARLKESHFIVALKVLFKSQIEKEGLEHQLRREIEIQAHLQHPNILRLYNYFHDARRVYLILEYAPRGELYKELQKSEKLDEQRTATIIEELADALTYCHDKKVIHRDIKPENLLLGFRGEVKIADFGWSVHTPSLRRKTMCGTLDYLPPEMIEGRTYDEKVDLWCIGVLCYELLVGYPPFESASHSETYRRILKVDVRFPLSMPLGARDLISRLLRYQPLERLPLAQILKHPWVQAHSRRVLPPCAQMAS

SMILES: COc1ccc(/C=C2\SC(=S)NC2=O)cc1C#C[Si](C)(C)C [FINDY]
- inhibition at 10 µM (ROCK2): -2%
- inhibition at 10 µM (LTK): 4.6%
- inhibition at 10 µM (LYNb): 11.4%
- inhibition at 10 µM (RSK1): 39.8%
- inhibition at 10 µM (PYK2): 3.6%
- inhibition at 10 µM (FGFR3): -0.5%
- inhibition at 10 µM (TIE2): 55.7%
- inhibition at 10 µM (PKCβ2): -2.3%
- inhibition at 10 µM (CDK9/CycT1): 3.1%
- inhibition at 10 µM (Erk1): 33.8%
- inhibition at 10 µM (AurC): 40.1%
- inhibition at 10 µM (MGC42105): 12.5%
- inhibition at 10 µM (PAK2): -2.5%
- inhibition at 10 µM (IKKα): 4.9%
- inhibition at 10 µM (EPHA7): 18.7%
- inhibition at 10 µM (PDGFRβ): 8.2%
- inhibition at 10 µM (WNK2): 12.3%
- inhibition at 10 µM (TXK): 23.7%
- inhibition at 10 µM (PLK3): 76.3%
- inhibition at 10 µM (PKACγ): 17.8%
- inhibition at 10 µM (PKR): 5.8%
- inhibition at 10 µM (PDHK2): 14.1%
- inhibition at 10 µM (PKD2): 29.9%
- inhibition at 10 µM (QIK): -7.7%
- inhibition at 10 µM (PGK): 2.6%
- inhibition at 10 µM (DDR2): 13.5%
- inhibition at 10 µM (PDK1): -2.6%
- inhibition at 10 µM (MLK2_Cascade): 41%
- inhibition at 10 µM (MNK2): 8.3%
- inhibition at 10 µM (CDC7/ASK): 14.1%
- inhibition at 10 µM (TNIK): 10.7%
- inhibition at 10 µM (FGFR4): 6.9%
- inhibition at 10 µM (MAPKAPK2): 51.9%
- inhibition at 10 µM (TYK2): -5.4%
- inhibition at 10 µM (CDK4/CycD3): 8%
- inhibition at 10 µM (CaMK1α): -4.1%
- inhibition at 10 µM (AMPKα1/β1/γ1): 8.6%
- inhibition at 10 µM (AKT2): 23.5%
- inhibition at 10 µM (PKD1): 11.8%
- inhibition at 10 µM (IKKβ): -3.5%
- inhibition at 10 µM (SRM): 32.9%
- inhibition at 10 µM (BRAF_Cascade): 33.9%
- inhibition at 10 µM (SRPK1): 7.5%
- inhibition at 10 µM (LOK): -28.2%
